Measured values from ChEMBL document CHEMBL1156292, “Zwittermicin A: synthesis of analogs and structure-activity studies” (2010).
Values after ≈ are worked out from the molar mass of the structure shown.

Tests used:
Format in all cases: functional
[1] = test system: Candida albicans; test: Antifungal activity against Candida albicans UCDFR1 by disk diffusion assay
[2] = test system: Candida albicans; test: Antifungal activity against Candida albicans ATCC 14503 by disk diffusion assay
[3] = test system: Candida albicans; test: Antifungal activity against Candida albicans 96-489 by disk diffusion assay
[4] = test system: Pichia kudriavzevii; test: Antifungal activity against Candida krusei by disk diffusion assay
[5] = test system: Phytophthora infestans; test: Antifungal activity against Phytophthora infestans by disk diffusion assay
[6] = test system: Pectobacterium carotovorum; test: Antibacterial activity against Erwinia carotovora by disk diffusion assay
[7] = test system: Erwinia amylovora; test: Antibacterial activity against Erwinia amylovora by disk diffusion assay
[8] = test system: Nakaseomyces glabratus; test: Antifungal activity against Candida glabrata by disk diffusion assay

Row | SMILES | MIC [1] [µg/mL] | MIC [2] [µg/mL] | MIC [3] [µg/mL] | MIC [4] [µg/mL] | MIC [5] [µg/mL] | MIC [6] [µg/mL] | MIC [7] [µg/mL] | MIC [8] [µg/mL]
1 | NC(=O)NC[C@H](NC(=O)[C@@H](O)[C@H](O)[C@H](N)CO)C(N)=O | > 128 | > 128 | > 128 | > 128 | > 32 | > 128 | > 128 | > 128
2 | N[C@@H](CO)[C@@H](O)C[C@H](O)[C@@H](N)CO | > 128 | > 128 | > 128 | > 128 |  |  |  | > 128
3 | N[C@@H](CO)[C@H](O)C[C@@H](O)[C@@H](N)CO | > 128 | > 128 | > 128 | > 128 |  |  |  | > 128
4 | NC(=O)NC[C@H](NC(=O)[C@@H](O)[C@H](O)[C@H](N)[C@H](O)C[C@@H](O)[C@@H](N)CO)C(N)=O | > 128 | > 128 | > 128 | > 128 | > 32 | > 128 | > 128 | > 128
5 | NC(=O)NC[C@@H](NC(=O)[C@@H](O)[C@H](O)[C@H](N)CO)C(N)=O | > 128 | > 128 | > 128 | > 128 | > 32 | > 128 | > 128 | > 128
6 | N[C@H](CO)[C@@H](O)C[C@H](O)[C@@H](N)CO | > 128 | > 128 | > 128 | > 128 |  |  |  | > 128
7 | NC(=O)NC[C@H](NC(=O)[C@H](O)[C@@H](O)[C@@H](N)[C@@H](O)C[C@H](O)[C@H](N)CO)C(N)=O | > 128 | > 128 | 55.7 (≈ 141 µM) | > 128 | > 32 | 22.2 (≈ 56 µM) | 18.8 (≈ 47.4 µM) | 59.5 (≈ 150 µM)
8 | NC(=O)NC[C@@H](NC(=O)[C@H](O)[C@@H](O)[C@@H](N)[C@@H](O)C[C@@H](O)[C@@H](N)CO)C(N)=O | > 128 | > 128 | > 128 | > 128 | > 32 | > 128 | > 128 | > 128
9 | N[C@H](CO)[C@H](O)C[C@H](O)[C@H](N)CO | > 128 | > 128 | > 128 | > 128 |  |  |  | > 128
10 | N[C@H](CO)[C@@H](O)C[C@H](O)[C@H](N)CO | > 128 | > 128 | > 128 | > 128 | > 32 | > 128 | > 128 | > 128
11 | N[C@H](CO)[C@H](O)C[C@H](O)[C@@H](N)CO | > 128 | > 128 | > 128 | > 128 |  |  |  | > 128
12 | NC(=O)NC[C@H](NC(=O)[C@H](O)[C@@H](O)[C@@H](N)[C@@H](O)C[C@@H](O)[C@@H](N)CO)C(N)=O | > 128 | > 128 | > 128 | > 128 | > 32 | > 128 | > 128 | > 128
13 | NC(=O)NC[C@@H](NC(=O)[C@@H](O)[C@H](O)[C@H](N)[C@H](O)C[C@@H](O)[C@@H](N)CO)C(N)=O [ENT-ZWITTERMICIN A] | > 128 | > 128 | > 128 | > 128 | > 32 | > 128 | > 128 | > 128
14 | N[C@@H](CO)[C@H](O)C[C@H](O)[C@@H](N)CO | > 128 | > 128 | > 128 | > 128 |  |  |  | > 128
